Experimental data as given in US20240391923A1, “METHIONINE ADENOSYLTRANSFERASE 2A INHIBITOR FOR TREATING MTAP DELETION-TYPE CANCER” (SUZHOU GENHOUSE BIO CO., LTD., priority 2022, published 2024).
Where two headings read alike, the source gives them in different places.

Assays:
[1] = test system: HCT116-MTAP-knockout (−/−) cell strain; assay: Tumor cell proliferation inhibition assay (CellTiter-Glo), HCT116-MTAP-knockout (-/-); format: cell-based; settings: Homo sapiens, 120 h, HCT116-MTAP-knockout (−/−) cells, 5-day treatment
In short: (§1)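 Cells were seeded, left 24 h, then exposed to test compounds in a 10-point, 1:3 dilution series from 10 μM top concentration alongside a DMSO group. After 5 days at 37° C./5% CO2, growth inhibition was judged from ATP level by CellTiter-Glo luminescence.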

Hut-78 cell strain = assay: Tumor cell proliferation inhibition assay (CellTiter-Glo), Hut-78; format: cell-based; settings: Homo sapiens, HuT78, 120 h, Hut-78 cells, 5-day treatment
In short: as §1

[2] = Pharmacokinetic test in mice (IV and PO); format: in vivo; settings: BALB/c mice; for AUC / clearance / bioavailability / half-life / Vd: mouse, plasma; for half-life: read-out: T½ (converted); for Vd: read-out: Vz
[3] = test system: HCT116-MTAP wild-type (+/+)-cell strain; assay: Tumor cell proliferation inhibition assay (CellTiter-Glo), HCT116-MTAP wild-type (+/+); format: cell-based; settings: Homo sapiens, 120 h, HCT116-MTAP wild-type (+/+) cells, 5-day treatment
In short: as §1

hERG potassium current = target: T1, hERG potassium current (Homo sapiens, UniProt Q12809); assay: hERG inhibition test (whole-cell patch clamp, Qpatch); format: cell-based; settings: initial concentration 30 μM, 6 concentration points
T1 construct: expressed in transfected cells; host or cells: HEK293, cultured under G418 selection
T1 sequence (Q12809 whole entry): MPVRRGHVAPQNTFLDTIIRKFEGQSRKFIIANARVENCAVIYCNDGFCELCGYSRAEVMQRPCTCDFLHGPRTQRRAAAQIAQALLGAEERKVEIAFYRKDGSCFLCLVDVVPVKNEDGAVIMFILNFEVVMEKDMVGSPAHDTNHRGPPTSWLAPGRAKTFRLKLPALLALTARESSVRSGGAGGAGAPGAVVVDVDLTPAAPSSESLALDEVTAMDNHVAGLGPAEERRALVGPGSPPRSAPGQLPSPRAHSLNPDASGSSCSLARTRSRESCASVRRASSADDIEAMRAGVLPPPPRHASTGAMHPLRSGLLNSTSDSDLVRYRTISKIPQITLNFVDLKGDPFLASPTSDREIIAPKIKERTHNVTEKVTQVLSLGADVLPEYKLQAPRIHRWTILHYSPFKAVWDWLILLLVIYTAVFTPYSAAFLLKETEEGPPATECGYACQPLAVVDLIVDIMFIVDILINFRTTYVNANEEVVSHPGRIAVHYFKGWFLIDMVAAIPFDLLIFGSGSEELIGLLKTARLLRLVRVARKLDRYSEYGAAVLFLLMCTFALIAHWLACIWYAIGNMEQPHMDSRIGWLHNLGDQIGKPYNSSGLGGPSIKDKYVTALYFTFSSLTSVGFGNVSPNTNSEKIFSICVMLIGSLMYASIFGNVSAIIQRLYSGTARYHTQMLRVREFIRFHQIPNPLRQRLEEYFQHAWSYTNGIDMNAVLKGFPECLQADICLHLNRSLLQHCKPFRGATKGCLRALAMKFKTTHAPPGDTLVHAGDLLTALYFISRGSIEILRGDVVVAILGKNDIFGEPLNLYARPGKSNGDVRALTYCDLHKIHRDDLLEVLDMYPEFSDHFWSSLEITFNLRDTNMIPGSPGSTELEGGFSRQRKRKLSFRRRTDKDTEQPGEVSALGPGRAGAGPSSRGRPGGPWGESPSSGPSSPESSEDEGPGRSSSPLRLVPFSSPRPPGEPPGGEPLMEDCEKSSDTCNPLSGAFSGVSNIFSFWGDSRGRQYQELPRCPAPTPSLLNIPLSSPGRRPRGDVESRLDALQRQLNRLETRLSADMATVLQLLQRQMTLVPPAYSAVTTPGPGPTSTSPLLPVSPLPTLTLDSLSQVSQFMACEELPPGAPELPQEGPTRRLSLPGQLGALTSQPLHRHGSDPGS
Experimental: The BEK293 cells were cultured in a DiVEM medium containing […] and 0.8 mg/mL G418 at 37° C. with 5% o CO2. The cells were digested by TrypLE™ Express and centrifuged. The cell density was adjusted to 2×10^6 cells/mL. The cells were gently mixed for 15-20 min using a shaker equilibrated at room temperature, and subjected to patch clamping on a machine. The medium of the prepared cells was replaced with extracellular fluid. The intracellular fluid and the extracellular fluid were taken from the fluid pool, and respectively added to the intracellular fluid pool and the cell and the test substance pool of the QPlate chip. The voltage stimulation of the whole-cell hERG potassium current was recorded by the whole-cell patch clamp, and the test data was collected and stored by Qpatch. The compound was diluted 3-fold at an initial concentration of 30 μM, and 6 concentration points were set, with each drug concentration being set for two administrations over a period of at least 5 min. The current detected in compound-free extracellular fluid for each cell was served as its own control group, and the detection was repeated at least twice independently using two cells per concentration. All electrophysiological experiments were performed at room temperature.
For data analysis, the current acted for each drug concentration and the current of the blank control were standardized
and then the inhibition rate corresponding to each drug concentration was calculated
The mean and standard error were calculated for each concentration, and the half maximal inhibitory concentration of each compound was calculated:
The dose-dependent effect was fitted non-linearly using the above equation, wherein Y represents the inhibition rate, C represents the concentration of the test substance, IC50 is the half maximal inhibitory concentration, and HillSlope represents the Hill coefficient. Curve fitting and calculation of IC50 were performed by Graphpad software.

[4] = Saturation solubility of samples in FaSSIF solution; format: physicochemical; settings: FaSSIF pH 6.5, room temperature overnight
Experimental: About 0.21 g of sodium hydroxide, about 2.24 g of sodium dihydrogen phosphate dihydrate, and 3.09 g of sodium chloride were weighed out and dissolved in 500 mL of water, and then the pH was adjusted to 6.5 with 1 N sodium hydroxide or 1 N hydrochloric acid. 112 mg of FaSSIF solid was weighed out and placed in a 50 mL volumetric flask, and the above buffer was added for dissolution, diluted to volume, mixed well, and left to stand at room temperature for 2 h or more.
• Test sample: about 1 mg of the test sample was taken, and 1 mL of FaSSIF solution was added. The mixture was stirred at room temperature overnight and centrifuged, and the supernatant was collected and injected for analysis. • Control substance solution: about 1.5 mg of the test sample was precisely weighed out and placed in a 50 mL volumetric flask, and DMF was added for dissolution, diluted to volume, and mixed well.
• Mobile phase A: 1000 mL of purified water was accurately weighed out, 1 mL of formic acid was added, and the mixture was mixed well and degassed with ultrasonic. • Mobile phase B: acetonitrile
The peak of the main component of the control substance and the peak of the test substance consistent with the retention time of the peak of the main component of the control substance were integrated, and the concentration thereof in the FaSSIF solution was calculated according to external standard method.

[5] = target: MAT2A recombinant protein (Homo sapiens, UniProt P31153); assay: MAT2A inhibitory activity (malachite green colorimetric enzyme assay); format: biochemical
Chain of MAT2A recombinant protein (P31153 whole entry): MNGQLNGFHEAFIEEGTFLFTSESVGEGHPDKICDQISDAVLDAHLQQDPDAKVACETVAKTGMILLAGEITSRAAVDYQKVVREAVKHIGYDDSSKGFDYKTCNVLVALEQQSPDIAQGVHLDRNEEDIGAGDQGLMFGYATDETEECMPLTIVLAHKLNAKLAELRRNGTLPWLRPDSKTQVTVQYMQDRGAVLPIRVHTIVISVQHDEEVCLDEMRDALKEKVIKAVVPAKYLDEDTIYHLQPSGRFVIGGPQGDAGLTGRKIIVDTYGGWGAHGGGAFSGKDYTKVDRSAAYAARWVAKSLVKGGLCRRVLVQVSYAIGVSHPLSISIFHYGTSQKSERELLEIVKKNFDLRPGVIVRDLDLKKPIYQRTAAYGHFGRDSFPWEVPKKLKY
In short: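 Compounds tested over 10 points, 3-fold dilutions, top final concentration 1000 nM. Enzyme reaction: MAT2A, L-methionine, ATP, room temperature, 60 min, in HEPES pH 7.5 buffer with KCl, MgCl2 and DTT; inorganic phosphate read colorimetrically (malachite green, A630). Inhibition vs log concentration fitted for IC50.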

[6] = IC50 score, read-out: Tumor cell 5-day relative growth inhibition (HCT116-MTAP−/−) (nM), score
[7] = IC50 value, read-out: Tumor cell 5-day relative growth inhibition (HCT116-MTAP−/−)
[8] = IC50 score, read-out: Tumor cell 5-day relative growth inhibition (Hut-78) (nM), score
[9] = IC50 value, read-out: Tumor cell 5-day relative growth inhibition (Hut-78)
[10] = IC50 score, read-out: Tumor cell 5-day relative growth inhibition (HCT116-MTAP+/+) (nM), score
[11] = IC50 value, read-out: Tumor cell 5-day relative growth inhibition (HCT116-MTAP+/+)
[12] = IC50 score class, read-out: MAT2A Inhibition (score)

Cc1ncccc1-n1c(=O)c2nn(C)cc2c2ccc(C(F)(F)F)nc21 (single isomer, unassigned) [Compound B180]
IC50 [1, 6]: < 500 nM | IC50 [1, 7]: 9.6 nM | IC50 (Hut-78 cell strain; [8]): < 500 nM | IC50 (Hut-78 cell strain; [9]): 17.4 nM | AUC ([2]; IV 2 mg/kg): 3.37 µM·h | clearance ([2]; IV 2 mg/kg): 27.3 mL/min/kg | bioavailability ([2]; IV 2 mg/kg, PO 10 mg/kg): 274% | half-life ([2]; IV 2 mg/kg): 0.16 h | Vd ([2]; IV 2 mg/kg): 0.4 L/kg | AUC ([2]; PO 10 mg/kg): 46.2 µM·h | half-life ([2]; PO 10 mg/kg): 0.51 h | IC50 [3, 10]: < 500 nM | IC50 [3, 11]: 191 nM | IC50 (hERG potassium current): > 30000 nM

Cn1cc2c(n1)c(=O)n(-c1cccnc1)c1cc(Cl)ccc21 [Compound B12]
IC50 [1, 6]: < 500 nM | IC50 [1, 7]: 383 nM | IC50 (Hut-78 cell strain; [8]): < 500 nM | IC50 (Hut-78 cell strain; [9]): 145 nM | AUC ([2]; IV 2 mg/kg): 4.5 µM·h | clearance ([2]; IV 2 mg/kg): 22.7 mL/min/kg | half-life ([2]; IV 2 mg/kg): 0.98 h | Vd ([2]; IV 2 mg/kg): 1.9 L/kg | AUC ([2]; PO 10 mg/kg): 26.8 µM·h | half-life ([2]; PO 10 mg/kg): 0.81 h | IC50 [3, 10]: 500 to 2000 nM | IC50 [3, 11]: 1650 nM | IC50 (hERG potassium current): > 30000 nM

Cn1cc2c(n1)c(=O)n(-c1cccc3[nH]ncc13)c1cc(Cl)ccc21 [Compound B60]
IC50 [1, 6]: < 500 nM | IC50 [1, 7]: 12.6 nM | IC50 (Hut-78 cell strain; [8]): < 500 nM | IC50 (Hut-78 cell strain; [9]): 37.1 nM | FaSSIF (pH = 6.5) (μg/mL) [4]: 20.9 μg/mL | AUC (in words) ([2]; summary of Table 7): relatively high | half-life (T½) (in words) ([2]; summary of Table 7): relatively long | AUC ([2]; IV 2 mg/kg): 119 µM·h | clearance ([2]; IV 2 mg/kg): 0.667 mL/min/kg | bioavailability ([2]; IV 2 mg/kg, PO 10 mg/kg): 115% | half-life ([2]; IV 2 mg/kg): 10 h | Vd ([2]; IV 2 mg/kg): 0.6 L/kg | AUC ([2]; PO 10 mg/kg): 683 µM·h | half-life ([2]; PO 10 mg/kg): 9 h | IC50 [3, 10]: 500 to 2000 nM | IC50 [3, 11]: 1000 nM | IC50 (hERG potassium current): > 40000 nM | IC50 [5, 12]: < 100 nM | IC50 ([5]; read-out: MAT2A Inhibition): 47.5 nM

Cn1cc2c(n1)c(=O)n(-c1cccc(O)c1)c1nc(C(F)(F)F)ccc21 [Compound B148]
IC50 (Hut-78 cell strain; [8]): < 500 nM | IC50 (Hut-78 cell strain; [9]): 135 nM | IC50 (hERG potassium current): > 30000 nM | IC50 [5, 12]: < 100 nM | IC50 ([5]; read-out: MAT2A Inhibition): 24.6 nM

O=c1c2n[nH]cc2c2ccc(C(F)(F)F)nc2n1-c1cccnc1 [Compound B178]
IC50 [1, 6]: < 500 nM | IC50 [1, 7]: 59.1 nM | IC50 (Hut-78 cell strain; [8]): < 500 nM | IC50 (Hut-78 cell strain; [9]): 184 nM | IC50 [3, 10]: ≥ 2000 nM | IC50 [3, 11]: ≥ 2000 nM | IC50 (hERG potassium current): > 30000 nM | IC50 [5, 12]: < 100 nM | IC50 ([5]; read-out: MAT2A Inhibition): 19 nM

Cn1cc2c(n1)c(=O)n(-c1ccccc1Cl)c1nc(C(F)(F)F)ccc21 [Compound B182]
IC50 [1, 6]: 500 to 2000 nM | IC50 [1, 7]: 1860 nM | IC50 (Hut-78 cell strain; [8]): 500 to 2000 nM | IC50 (Hut-78 cell strain; [9]): 1220 nM | FaSSIF (pH = 6.5) (μg/mL) [4]: 17.6 μg/mL | IC50 [3, 10]: ≥ 2000 nM | IC50 [3, 11]: 7340 nM | IC50 [5, 12]: < 100 nM | IC50 ([5]; read-out: MAT2A Inhibition): 56.9 nM

Cn1cc2c(n1)c(=O)n(-c1cccc3[nH]ncc13)c1cc(Cl)c(F)cc21 [Compound B257]
IC50 [1, 6]: < 500 nM | IC50 [1, 7]: 27.5 nM | FaSSIF (pH = 6.5) (μg/mL) [4]: 248 μg/mL | AUC (in words) ([2]; summary of Table 7): relatively high | half-life (T½) (in words) ([2]; summary of Table 7): relatively long | AUC ([2]; IV 2 mg/kg): 49.8 µM·h | clearance ([2]; IV 2 mg/kg): 0.917 mL/min/kg | bioavailability ([2]; IV 2 mg/kg, PO 10 mg/kg): 220% | half-life ([2]; IV 2 mg/kg): 9.8 h | Vd ([2]; IV 2 mg/kg): 0.8 L/kg | AUC ([2]; PO 10 mg/kg): 2110 µM·h | half-life ([2]; PO 10 mg/kg): 34.2 h | IC50 [3, 10]: 500 to 2000 nM | IC50 [3, 11]: 464 nM | IC50 (hERG potassium current): > 30000 nM | IC50 [5, 12]: < 100 nM | IC50 ([5]; read-out: MAT2A Inhibition): 39.6 nM

Cn1cc2c(n1)c(=O)n(-c1cccc3[nH]ncc13)c1cc(Cl)c(C#N)cc21 [Compound B258]
IC50 [1, 6]: < 500 nM | IC50 [1, 7]: 235 nM | FaSSIF (pH = 6.5) (μg/mL) [4]: 131 μg/mL | tissue distribution (in words) ([2]; concluded from Vz, Table 7): good | AUC (in words) ([2]; summary of Table 7): relatively high | Vz value (in words) ([2]; summary of Table 7): relatively high | half-life (T½) (in words) ([2]; summary of Table 7): relatively long | AUC ([2]; IV 2 mg/kg): 21.4 µM·h | clearance ([2]; IV 2 mg/kg): 2.08 mL/min/kg | bioavailability ([2]; IV 2 mg/kg, PO 5 mg/kg): 93% | half-life ([2]; IV 2 mg/kg): 14.2 h | Vd ([2]; IV 2 mg/kg): 2.6 L/kg | AUC ([2]; PO 5 mg/kg): 80.7 µM·h | half-life ([2]; PO 5 mg/kg): 7.7 h | IC50 [3, 10]: ≥ 2000 nM | IC50 [3, 11]: > 10000 nM | IC50 [5, 12]: < 100 nM | IC50 ([5]; read-out: MAT2A Inhibition): 28 nM

Cn1cc2c(n1)c(=O)n(-c1cccnc1C1CC1)c1cc(Cl)c(F)cc21 [Compound B340]
IC50 [1, 6]: < 500 nM | IC50 [1, 7]: 394 nM | FaSSIF (pH = 6.5) (μg/mL) [4]: 36 μg/mL | AUC ([2]; IV 2 mg/kg): 46 µM·h | clearance ([2]; IV 2 mg/kg): 1.83 mL/min/kg | half-life ([2]; IV 2 mg/kg): 9.3 h | Vd ([2]; IV 2 mg/kg): 1.58 L/kg | AUC ([2]; PO 10 mg/kg): 219 µM·h | half-life ([2]; PO 10 mg/kg): 7.7 h | IC50 [3, 10]: ≥ 2000 nM | IC50 [3, 11]: > 10000 nM
